Experimental data taken from ChEMBL document CHEMBL4257466, “The use of matched molecular series networks for cross target structure activity relationship translation and potency prediction” (Medchemcomm, 2017).

Each compound was assayed against RNA-directed RNA polymerase (Hepacivirus hominis, UniProt O39930) (assay: Inhibition of HCV RNA polymerase).
Sequence of RNA-directed RNA polymerase (O39930 whole entry): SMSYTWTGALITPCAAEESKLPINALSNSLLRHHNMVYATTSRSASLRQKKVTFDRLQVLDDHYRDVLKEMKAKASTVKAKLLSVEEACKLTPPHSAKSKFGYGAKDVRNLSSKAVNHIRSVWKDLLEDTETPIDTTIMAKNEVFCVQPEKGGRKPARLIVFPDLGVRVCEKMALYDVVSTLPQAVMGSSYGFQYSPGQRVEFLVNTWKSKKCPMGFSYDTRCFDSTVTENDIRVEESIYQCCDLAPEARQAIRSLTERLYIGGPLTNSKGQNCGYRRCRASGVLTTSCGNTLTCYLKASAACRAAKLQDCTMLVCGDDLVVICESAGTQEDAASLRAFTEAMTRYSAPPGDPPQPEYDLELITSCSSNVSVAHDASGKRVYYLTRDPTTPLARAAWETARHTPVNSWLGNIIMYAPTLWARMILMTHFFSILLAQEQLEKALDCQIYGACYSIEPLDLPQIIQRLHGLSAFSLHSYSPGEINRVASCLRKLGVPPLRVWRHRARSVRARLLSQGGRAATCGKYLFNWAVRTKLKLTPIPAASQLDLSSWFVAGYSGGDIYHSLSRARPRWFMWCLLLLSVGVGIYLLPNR

Row | SMILES | IC50
1 | CNC(=O)c1c(-c2ccc(F)cc2)oc2nc(CNS(C)(=O)=O)c(C3CC3)cc12 | 501 nM
2 | CNC(=O)c1c(-c2ccc(F)cc2)oc2nc(CNC(=O)COC)c(C3CC3)cc12 | 3160 nM
3 | CNC(=O)c1c(-c2ccc(F)cc2)oc2nc(CNC(=O)C3CCOC3)c(C3CC3)cc12 (stereo not given) | 2510 nM
4 | CNC(=O)c1c(-c2ccc(F)cc2)oc2nc(CN)c(C3CC3)cc12 | 6310 nM
5 | CNC(=O)c1c(-c2ccc(F)cc2)oc2nc(CNC(C)=O)c(C3CC3)cc12 | 631 nM
